Experimental findings from ChEMBL document CHEMBL3714716, “Modulators of the relaxin receptor 1” (2015) are described below.

Active and inactive are the calls of the source. The calls are words filed in the database; no cut-off is given here.

Usually Tmax stands for the time from dosing to the highest level. Usually Cmax stands for the peak of the concentration-time curve.

In series [1] the test system is Plasma. The series is described as follows: AUMClast in C57/BL6 mouse plasma at 3 mg/kg, iv administered as single dose. The class given is ADME, organism-based. To be noted: in vivo.
Series [2] in a line: Initial plasma concentration in C57/BL6 mouse plasma at 3 mg/kg, iv administered as single dose. The series is classed as ADME, organism-based.
The subject of series [3] is Plasma. The series is described as follows: AUMClast in C57/BL6 mouse plasma at 30 mg/kg, po administered as single dose. To be noted: in vivo. The series is classed as ADME, organism-based.
The nature of series [4]: Tmax in C57/BL6 mouse plasma at 30 mg/kg, po administered as single dose. The series is classed as ADME, organism-based.
Series [5] can be described thus: Cmax in C57/BL6 mouse plasma at 30 mg/kg, po administered as single dose. The class given is ADME, organism-based. Also on record: dose 30 mg/kg, route oral.
Series [6] deals with Heart. Nature of the series: AUMClast in C57/BL6 mouse heart at 3 mg/kg, iv administered as single dose. The series is classed as ADME, organism-based. To be noted: in vivo.
Series [7] relates to Heart. The series is described as follows: AUMClast in C57/BL6 mouse heart at 30 mg/kg, po administered as single dose. The series is classed as ADME, organism-based. To be noted: in vivo.
The nature of series [8]: Tmax in C57/BL6 mouse heart at 30 mg/kg, po administered as single dose. The series is classed as ADME, organism-based.
Series [9] concerns the target T1, Relaxin receptor 1 (Mus musculus) (UniProt Q6R6I7).
T1 sequence (whole entry): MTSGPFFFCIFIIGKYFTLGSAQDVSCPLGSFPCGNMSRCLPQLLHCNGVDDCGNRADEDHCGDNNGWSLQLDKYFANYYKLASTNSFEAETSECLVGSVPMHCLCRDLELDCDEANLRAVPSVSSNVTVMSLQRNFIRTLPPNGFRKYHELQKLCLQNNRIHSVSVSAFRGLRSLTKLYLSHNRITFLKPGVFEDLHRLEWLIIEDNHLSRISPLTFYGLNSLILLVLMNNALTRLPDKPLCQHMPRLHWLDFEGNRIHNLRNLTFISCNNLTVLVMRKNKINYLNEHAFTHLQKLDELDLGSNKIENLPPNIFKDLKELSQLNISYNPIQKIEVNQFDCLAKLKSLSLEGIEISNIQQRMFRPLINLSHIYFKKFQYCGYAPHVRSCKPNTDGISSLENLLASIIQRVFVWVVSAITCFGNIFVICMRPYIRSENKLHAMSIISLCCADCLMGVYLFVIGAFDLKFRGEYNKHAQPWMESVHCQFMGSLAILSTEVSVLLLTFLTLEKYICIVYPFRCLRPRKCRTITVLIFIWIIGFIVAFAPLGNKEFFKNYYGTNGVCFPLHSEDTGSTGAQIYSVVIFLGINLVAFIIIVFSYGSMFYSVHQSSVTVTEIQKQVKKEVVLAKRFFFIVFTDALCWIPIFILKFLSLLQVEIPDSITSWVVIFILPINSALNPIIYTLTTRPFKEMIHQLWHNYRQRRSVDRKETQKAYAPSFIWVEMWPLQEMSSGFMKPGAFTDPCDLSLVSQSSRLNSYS
The series is described as follows: Agonist activity at mouse RXFP1 receptor expressed in HEK293 cells assessed as stimulation of cAMP production incubated for 30 mins by TR-FRET based HTRF assay. The class given is functional, cell-based.

Series [10] deals with Relaxin receptor 2 (Mus musculus) (UniProt Q91ZZ5). The series is described as follows: Agonist activity at mouse RXFP2 receptor expressed in HEK293 cells assessed as stimulation of cAMP production incubated for 30 mins by TR-FRET based HTRF assay. The class given is functional, cell-based. For orientation: Cyclic AMP is a second messenger, typically raised through Gs and lowered through Gi signalling.

The target in series [11] is T1, Relaxin receptor 1 (Mus musculus). Nature of the series: Agonist activity at mouse RXFP1 receptor M10 Ile646Val and Leu647Val mutant expressed in HEK293 cells assessed as stimulation of cAMP production incubated for 30 mins by TR-FRET based HTRF assay. The series is classed as functional, cell-based.
The target is the same in series [12]. Nature of the series: Agonist activity at mouse RXFP1 receptor M11 Asp659Gly and Ser660Thr mutant expressed in HEK293 cells assessed as stimulation of cAMP production at 66 uM incubated for 30 mins by TR-FRET based HTRF assay relative to relaxin. The class given is functional, cell-based. Also on record: scale not given: the % may be the effect or the level left.

Series [13] concerns the target T2, Relaxin receptor 1 (Macaca mulatta) (UniProt I2CTQ4).
T2 sequence (whole entry): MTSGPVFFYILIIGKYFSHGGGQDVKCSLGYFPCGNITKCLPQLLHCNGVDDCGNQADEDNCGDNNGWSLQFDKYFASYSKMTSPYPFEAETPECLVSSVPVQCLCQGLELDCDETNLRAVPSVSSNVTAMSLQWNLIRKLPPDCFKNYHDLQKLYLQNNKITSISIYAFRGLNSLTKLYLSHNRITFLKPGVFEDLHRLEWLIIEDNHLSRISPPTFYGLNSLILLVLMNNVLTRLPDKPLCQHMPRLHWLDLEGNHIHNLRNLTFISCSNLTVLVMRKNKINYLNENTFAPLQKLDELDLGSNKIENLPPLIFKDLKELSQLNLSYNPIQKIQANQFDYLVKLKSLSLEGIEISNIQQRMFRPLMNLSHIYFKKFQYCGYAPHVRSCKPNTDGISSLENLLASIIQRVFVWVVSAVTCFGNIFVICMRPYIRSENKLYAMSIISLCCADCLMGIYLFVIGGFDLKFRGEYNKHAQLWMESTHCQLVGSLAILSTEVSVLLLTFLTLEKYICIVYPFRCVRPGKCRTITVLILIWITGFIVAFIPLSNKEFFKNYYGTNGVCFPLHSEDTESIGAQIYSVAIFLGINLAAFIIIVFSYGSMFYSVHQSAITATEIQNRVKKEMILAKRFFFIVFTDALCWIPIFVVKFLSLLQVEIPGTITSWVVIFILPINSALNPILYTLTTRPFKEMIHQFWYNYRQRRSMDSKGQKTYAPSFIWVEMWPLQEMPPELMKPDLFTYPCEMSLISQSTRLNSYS
The series is described as follows: Agonist activity at monkey RXFP1 receptor assessed as stimulation of cAMP production incubated for 30 mins by TR-FRET based HTRF assay. The series is classed as functional.

Series [14] concerns the target T3, Uncharacterized protein (Sus scrofa) (UniProt F1RW91).
T3 sequence (whole entry): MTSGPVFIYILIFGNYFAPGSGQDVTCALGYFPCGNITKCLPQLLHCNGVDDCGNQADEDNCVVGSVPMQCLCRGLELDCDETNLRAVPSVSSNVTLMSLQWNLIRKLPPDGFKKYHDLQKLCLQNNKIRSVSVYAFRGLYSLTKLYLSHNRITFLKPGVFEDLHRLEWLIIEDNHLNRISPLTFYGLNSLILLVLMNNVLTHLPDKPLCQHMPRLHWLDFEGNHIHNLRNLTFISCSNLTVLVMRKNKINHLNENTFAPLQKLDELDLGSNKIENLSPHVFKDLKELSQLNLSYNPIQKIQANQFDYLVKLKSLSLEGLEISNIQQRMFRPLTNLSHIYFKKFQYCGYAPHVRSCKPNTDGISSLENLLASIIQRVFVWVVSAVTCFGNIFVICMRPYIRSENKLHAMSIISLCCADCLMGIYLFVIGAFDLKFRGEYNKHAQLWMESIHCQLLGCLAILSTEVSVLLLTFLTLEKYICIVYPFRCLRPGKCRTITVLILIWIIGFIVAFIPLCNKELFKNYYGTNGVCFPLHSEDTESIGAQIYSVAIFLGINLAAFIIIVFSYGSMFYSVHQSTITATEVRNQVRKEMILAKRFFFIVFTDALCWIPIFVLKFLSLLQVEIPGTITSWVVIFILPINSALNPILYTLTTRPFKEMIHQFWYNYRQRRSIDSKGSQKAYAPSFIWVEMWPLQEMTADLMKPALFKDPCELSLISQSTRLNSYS
The series is described as follows: Agonist activity at pig RXFP1 receptor assessed as stimulation of cAMP production incubated for 30 mins by TR-FRET based HTRF assay. The series is classed as functional.

Sequence of Relaxin receptor 2 (Mus musculus) (Q91ZZ5 whole entry): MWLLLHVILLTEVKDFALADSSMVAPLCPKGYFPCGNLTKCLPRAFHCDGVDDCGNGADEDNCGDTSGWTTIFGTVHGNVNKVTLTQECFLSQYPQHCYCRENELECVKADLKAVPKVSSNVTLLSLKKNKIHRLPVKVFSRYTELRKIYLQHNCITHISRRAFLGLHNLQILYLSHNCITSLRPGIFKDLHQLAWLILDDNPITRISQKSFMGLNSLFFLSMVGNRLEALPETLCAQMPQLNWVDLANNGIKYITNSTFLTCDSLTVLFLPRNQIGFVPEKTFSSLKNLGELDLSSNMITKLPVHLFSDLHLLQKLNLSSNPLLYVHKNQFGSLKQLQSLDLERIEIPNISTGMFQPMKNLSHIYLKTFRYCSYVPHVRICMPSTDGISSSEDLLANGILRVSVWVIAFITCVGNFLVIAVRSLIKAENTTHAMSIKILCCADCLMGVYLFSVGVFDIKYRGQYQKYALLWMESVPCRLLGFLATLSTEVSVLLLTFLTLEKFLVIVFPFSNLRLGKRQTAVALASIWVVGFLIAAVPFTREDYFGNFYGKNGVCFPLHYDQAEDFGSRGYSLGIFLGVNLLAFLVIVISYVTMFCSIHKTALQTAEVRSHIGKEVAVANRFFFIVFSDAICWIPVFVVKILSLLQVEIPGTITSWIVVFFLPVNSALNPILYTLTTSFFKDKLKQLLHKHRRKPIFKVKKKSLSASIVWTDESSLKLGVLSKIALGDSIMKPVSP

In the case of `CC(C)Oc1ccccc1C(=O)Nc1ccccc1C(=O)Nc1cccc(S(=O)(=O)C(F)(F)F)c1`, the AUMClast is on record as 3110 hr.hr.ng/ml with Plasma [1], 2990 hr.hr.ng/ml with Plasma [3], 28300 hr.hr.ng/ml with Heart [6] and 5780 hr.hr.ng/ml with Heart [7]. Further, in series [2], the C0 stood at 499 ng/mL. Moreover, the Tmax in series [4] was determined as 0.5 h; in series [8], 1.5 h. Moreover, the Cmax in series [5] was found to be 306 ng/mL. The result in [9], in [10] and in series [11] was inactive. The Activity in series [12] stood at 44.4%. Also, the result in [13] and in series [14] was Active.
